pIC50: −log10 of the molar value.
Molecular target: T1, estrogen receptor (Homo sapiens, UniProt P03372)
T1 construct: endogenous in cells; host or cells: ECC-1 cells
T1 sequence (P03372 1-595): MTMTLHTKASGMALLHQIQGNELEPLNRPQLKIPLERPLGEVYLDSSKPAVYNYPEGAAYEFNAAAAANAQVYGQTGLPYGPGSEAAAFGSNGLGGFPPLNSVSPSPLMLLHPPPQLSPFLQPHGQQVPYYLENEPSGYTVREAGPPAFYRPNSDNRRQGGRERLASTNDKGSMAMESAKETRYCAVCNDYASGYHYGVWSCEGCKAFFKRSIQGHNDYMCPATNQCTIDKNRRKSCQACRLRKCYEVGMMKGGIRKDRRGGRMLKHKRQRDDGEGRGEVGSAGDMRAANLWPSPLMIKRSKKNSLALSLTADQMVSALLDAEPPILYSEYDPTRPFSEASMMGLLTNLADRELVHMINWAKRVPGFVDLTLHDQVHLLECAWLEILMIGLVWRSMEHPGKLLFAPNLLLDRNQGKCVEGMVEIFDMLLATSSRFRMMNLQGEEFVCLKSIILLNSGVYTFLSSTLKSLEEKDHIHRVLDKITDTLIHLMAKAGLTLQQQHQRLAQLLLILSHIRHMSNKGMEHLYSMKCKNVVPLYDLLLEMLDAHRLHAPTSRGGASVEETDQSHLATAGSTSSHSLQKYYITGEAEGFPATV
Assay: AP assay (alkaline phosphatase activity in ECC-1 cells), agonist mode (absence of E2) and antagonist mode (presence of 500 pM E2)
Type: cell-based
Details: for Activity (estrogen receptor modulation, e.g., agonism and antagonism): 3 days, AP activity normalized to 500 pM E2 alone, agonist and antagonist mode combined; for pIC50: AP assay; for pIC50 / reduction in the E2-normalized signal in the AP assay (antagonist mode): antagonist mode, 500 pM E2, 3 days; for increase in E2-normalized signal in the AP assay (agonist mode): absence of E2, 3 days
In short: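 Read-out is absorbance at 405 nm from p-nitrophenyl phosphate cleavage (40 min, 42 °C), expressed relative to 500 pM E2 alone. Compounds were applied to ECC-1 cells in hormone-depleted medium for 3 days, either alone (agonist) or alongside 500 pM E2 (antagonist).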

SMILES | Activity (estrogen receptor modulation, e.g., agonism and antagonism) | also measured
C[C@@H]1Cc2c([nH]c3ccccc23)[C@@H](c2ccc3[nH]c(CO)cc3c2)N1CC(C)(C)F [Compound I-93, [5-[(1R,3R)-2-(2-fluoro-2-methyl-propyl)-3-methyl-1,3,4,9-tetrahydropyrido[3,4-b]indol-1-yl]-1H-indol-2-yl]methanol] | + (estrogen receptor agonism having (i) at least 80% increase in the E2-normalized signal in the AP assay (agonist mode) and (ii) no more than 80% reduction in the E2-normalized signal in the AP assay (antagonist mode)) | 
COC1CN(Cc2cc3cc([C@@H]4c5[nH]c6ccccc6c5C[C@@H](C)N4CC(C)(C)F)ccc3[nH]2)C1 [Compound I-94, (1R,3R)-2-(2-fluoro-2-methyl-propyl)-1-[2-[(3-methoxyazetidin-1-yl)methyl]-1H-indol-5-yl]-3-methyl-1,3,4,9-tetrahydropyrido[3,4-b]indole] | + (estrogen receptor agonism having (i) at least 80% increase in the E2-normalized signal in the AP assay (agonist mode) and (ii) no more than 80% reduction in the E2-normalized signal in the AP assay (antagonist mode)) | 
CC(C)C1CN(Cc2cc3cc([C@@H]4c5[nH]c6ccccc6c5C[C@@H](C)N4CC(C)(C)F)ccc3[nH]2)C1 [Compound I-95, (1R,3R)-2-(2-fluoro-2-methyl-propyl)-1-[2-[(3-isopropylazetidin-1-yl)methyl]-1H-indol-5-yl]-3-methyl-1,3,4,9-tetrahydropyrido[3,4-b]indole] | + (estrogen receptor agonism having (i) at least 80% increase in the E2-normalized signal in the AP assay (agonist mode) and (ii) no more than 80% reduction in the E2-normalized signal in the AP assay (antagonist mode)) | 
C[C@@H]1Cc2c([nH]c3ccccc23)[C@@H](c2ccc3[nH]c(CN4CC(CC#N)C4)cc3c2)N1CC(C)(C)F [Compound I-98, 2-[1-[[5-[(1R,3R)-2-(2-fluoro-2-methyl-propyl)-3-methyl-1,3,4,9-tetrahydropyrido[3,4-b]indol-1-yl]-1H-indol-2-yl]methyl]azetidin-3-yl]acetonitrile] | ++ (estrogen receptor antagonism having (i) between 10% and 80% increase in the E2-normalized signal in the AP assay (agonist mode) and (ii) between 10% and 80% reduction in the E2-normalized signal in the AP assay (antagonist mode)) | 
C[C@@H]1Cc2c([nH]c3ccccc23)[C@@H](c2ccc3[nH]c(CN4CC(N(C)C)C4)cc3c2)N1CC(C)(C)F [Compound I-99, 1-[[5-[(1R,3R)-2-(2-fluoro-2-methyl-propyl)-3-methyl-1,3,4,9-tetrahydropyrido[3,4-b]indol-1-yl]-1H-indol-2-yl]methyl]-N,N-dimethyl-azetidin-3-amine] | ++ (estrogen receptor antagonism having (i) between 10% and 80% increase in the E2-normalized signal in the AP assay (agonist mode) and (ii) between 10% and 80% reduction in the E2-normalized signal in the AP assay (antagonist mode)) | 
C[C@@H]1Cc2c([nH]c3ccccc23)[C@@H](c2ccc3[nH]c(CN4CC(C(F)F)C4)cc3c2)N1CC(C)(C)F [Compound I-100, (1R,3R)-1-[2-[[3-(difluoromethyl)azetidin-1-yl]methyl]-1H-indol-5-yl]-2-(2-fluoro-2-methyl-propyl)-3-methyl-1,3,4,9-tetrahydropyrido[3,4-b]indole] | ++ (estrogen receptor antagonism having (i) between 10% and 80% increase in the E2-normalized signal in the AP assay (agonist mode) and (ii) between 10% and 80% reduction in the E2-normalized signal in the AP assay (antagonist mode)) | 
C[C@@H]1Cc2c([nH]c3ccccc23)[C@@H](c2ccc3[nH]c(CN4CC(F)(F)C4)cc3c2)N1CC(C)(C)F [Compound I-101, (1R,3R)-1-[2-[(3,3-difluoroazetidin-1-yl)methyl]-1H-indol-5-yl]-2-(2-fluoro-2-methyl-propyl)-3-methyl-1,3,4,9-tetrahydropyrido[3,4-b]indole] | ++ (estrogen receptor antagonism having (i) between 10% and 80% increase in the E2-normalized signal in the AP assay (agonist mode) and (ii) between 10% and 80% reduction in the E2-normalized signal in the AP assay (antagonist mode)) | 
C[C@@H]1Cc2c([nH]c3ccccc23)[C@@H](c2ccc3[nH]c(CN4CC(C)(F)C4)cc3c2)N1CC(C)(C)F [Compound I-102, (1R,3R)-1-[2-[(3-fluoro-3-methyl-azetidin-1-yl)methyl]-1H-indol-5-yl]-2-(2-fluoro-2-methyl-propyl)-3-methyl-1,3,4,9-tetrahydropyrido[3,4-b]indole] | ++ (estrogen receptor antagonism having (i) between 10% and 80% increase in the E2-normalized signal in the AP assay (agonist mode) and (ii) between 10% and 80% reduction in the E2-normalized signal in the AP assay (antagonist mode)) | 
C[C@@H]1Cc2c([nH]c3ccccc23)[C@@H](c2ccc3sc(CN4CC(CF)C4)nc3c2)N1CC(C)(C)F [Compound I-103, 2-[[3-(fluoromethyl)azetidin-1-yl]methyl]-5-[(1R,3R)-2-(2-fluoro-2-methyl-propyl)-3-methyl-1,3,4,9-tetrahydropyrido[3,4-b]indol-1-yl]-1,3-benzothiazole] | + (estrogen receptor agonism having (i) at least 80% increase in the E2-normalized signal in the AP assay (agonist mode) and (ii) no more than 80% reduction in the E2-normalized signal in the AP assay (antagonist mode)) | 
C[C@@H]1Cc2c([nH]c3ccccc23)[C@@H](c2ccc3c(c2)nc(CN2CC(CF)C2)[s+]3[O-])N1CC(C)(C)F (stereo partly drawn) [Compound I-104, 2-[[3-(fluoromethyl)azetidin-1-yl]methyl]-5-[(1R,3R)-2-(2-fluoro-2-methyl-propyl)-3-methyl-1,3,4,9-tetrahydropyrido[3,4-b]indol-1-yl]-1,3-benzothiazole 1-oxide] | + (estrogen receptor agonism having (i) at least 80% increase in the E2-normalized signal in the AP assay (agonist mode) and (ii) no more than 80% reduction in the E2-normalized signal in the AP assay (antagonist mode)) | 
C[C@@H]1Cc2c([nH]c3ccccc23)[C@@H](c2ccc3[nH]c(CN4CC(CF)C4)cc3c2)N1CC(F)(F)C(F)F [Compound I-109, (1R,3R)-1-[2-[[3-(fluoromethyl)azetidin-1-yl]methyl]-1H-indol-5-yl]-3-methyl-2-(2,2,3,3-tetrafluoropropyl)-1,3,4,9-tetrahydropyrido[3,4-b]indole] |  | pIC50: > 6.40; increase in E2-normalized signal in the AP assay (agonist mode): no more than 10%; reduction in the E2-normalized signal in the AP assay (antagonist mode): ≥ 10%
C[C@@H]1Cc2c([nH]c3ccccc23)[C@@H](c2ccc3[nH]c(CN4CC(CF)C4)cc3c2)N1CC(F)(F)C(F)(F)F [Compound I-110, (1R,3R)-1-[2-[[3-(fluoromethyl)azetidin-1-yl]methyl]-1H-indol-5-yl]-3-methyl-2-(2,2,3,3,3-pentafluoropropyl)-1,3,4,9-tetrahydropyrido[3,4-b]indole] |  | pIC50: > 6.40; increase in E2-normalized signal in the AP assay (agonist mode): no more than 10%; reduction in the E2-normalized signal in the AP assay (antagonist mode): ≥ 10%
